Patent US12174198B2, “Methods of characterizing condensate-associated characteristics of compounds and uses thereof” (Dewpoint Therapeutics, Inc., priority 2019, dated 2024)

Tests used:
Assay type in all cases: physicochemical
[1] = system: FUS-SNAP condensates versus PGL-3 condensates; assay: Condensate preference: ratio of FUS-SNAP I-in:I-out to PGL-3 I-in:I-out; conditions: average FUS-SNAP I-in:I-out divided by average PGL-3 I-in:I-out
Description: (§1) The ratios of the average intensity measured in the target condensates and outside of the target condensates were calculated by dividing I-in by I-out, although dividing I-out by I-in could also have been used. The I-in:I-out ratios determined from the two different days of experiments were then averaged. The average I-in:I-out ratios for FUS-SNAP condensates are shown in FIG. 3 and the average I-in:I-out ratios for PGL-3 condensates are shown in FIG. 4. The standard deviation between the two experiments is represented by the error bars in FIG. 3 and FIG. 4.

PGL-3 condensates = target: T1, PGL-3 condensates (Caenorhabditis elegans, UniProt G5EBV6); assay: Fluorescence imaging of dye partitioning in PGL-3 condensates (I-in, I-out)
T1 sequence (G5EBV6 1-693): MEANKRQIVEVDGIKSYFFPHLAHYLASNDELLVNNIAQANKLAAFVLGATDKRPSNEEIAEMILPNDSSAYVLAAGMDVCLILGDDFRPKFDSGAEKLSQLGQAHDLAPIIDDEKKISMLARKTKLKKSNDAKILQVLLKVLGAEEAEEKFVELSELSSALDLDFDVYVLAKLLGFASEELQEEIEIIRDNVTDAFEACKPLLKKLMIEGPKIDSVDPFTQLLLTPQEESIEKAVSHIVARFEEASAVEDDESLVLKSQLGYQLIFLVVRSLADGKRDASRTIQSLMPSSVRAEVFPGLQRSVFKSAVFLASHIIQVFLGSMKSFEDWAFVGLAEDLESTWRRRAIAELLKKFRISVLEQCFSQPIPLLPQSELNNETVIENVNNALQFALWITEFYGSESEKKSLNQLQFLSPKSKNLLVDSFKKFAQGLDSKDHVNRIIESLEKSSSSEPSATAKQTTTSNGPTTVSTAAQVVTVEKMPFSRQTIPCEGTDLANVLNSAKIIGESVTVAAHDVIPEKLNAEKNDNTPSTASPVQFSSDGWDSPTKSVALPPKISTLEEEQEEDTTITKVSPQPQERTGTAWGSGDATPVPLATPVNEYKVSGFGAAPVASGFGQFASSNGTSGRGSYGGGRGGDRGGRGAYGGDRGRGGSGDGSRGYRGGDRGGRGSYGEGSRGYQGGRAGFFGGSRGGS
Description: (§2) All dye-stocks were stored as 1 mM solutions in 100% DMSO. The dyes were dissolved in dilution buffer (DB: 14.7 mM Tris, pH 7.25, 1 mM DTT) to yield 11.765 μM dye in 1.1765 DMSO. 17 μl of dye was distributed in a 384 well non-binding plate (Greiner).
(§3) Either SNAP-tagged FUS protein or tag-free PGL-3 protein was thawed at room temperature for at least 10 min, and the buffer was exchanged to partitioning buffer (PB: 50 mM Tris pH 7.25, 500 mM KCl, 5% Glycerol, and 1 mM DTT). The protein was then diluted to 33.3 μM in PB. 3 μl of protein solution were added to the 384 well plate to initiate phase separation, yielding 20 μl of 5 μM protein and 10 μM dye in 75 mM KCl, 0.75% Glycerol, 20 mM Tris, 1 mM DTT, and 1% DMSO or for no dye control reactions, 20 μl of 5 μM protein in 75 mM KCl, 0.75% Glycerol, 20 mM Tris, 1 mM DTT.
(§4) A spinning disk confocal microscope was used to acquire images of the samples. A 60×oil high-NA objective lens was used to capture the condensate droplets. The laser power was set to 20% and the exposure times were adjusted to the fluorescence emission intensity specific for each dye. Exposure times ranged from 1-1000 ms. Appropriate filter settings were used, matching the excitation and emission spectra of the respective dyes. Three images per well were taken. The background signal of protein droplets in the absence of dye was recorded for all applied imaging conditions.
(§5) Fluorescence intensity was measured inside one exemplary target condensate (Intensity inside, I-in) per image and in a region next to the exemplary target condensate (Intensity outside, I-out) by hand using the image analysis software Fiji. An example depicting the regions measured is shown FIG. 2A. Three I-in and three I-out values were measured in total for each dye in each experiment and were averaged. The measured I-in and I-out values for FUS-SNAP condensates on one day of experiments are shown in Table 2 and Table 3, respectively. The measured I-in and I-out values for PGL-3 condensates on one day of experiments are shown in Table 4 and Table 5, respectively. All values were background corrected, based on the background images (no dye controls) taken with the same microscope conditions.
as §1

FUS-SNAP condensates = target: T2, FUS-SNAP condensates (Homo sapiens, UniProt P35637); assay: Fluorescence imaging of dye partitioning in FUS-SNAP condensates (I-in, I-out)
T2 sequence (P35637 1-526): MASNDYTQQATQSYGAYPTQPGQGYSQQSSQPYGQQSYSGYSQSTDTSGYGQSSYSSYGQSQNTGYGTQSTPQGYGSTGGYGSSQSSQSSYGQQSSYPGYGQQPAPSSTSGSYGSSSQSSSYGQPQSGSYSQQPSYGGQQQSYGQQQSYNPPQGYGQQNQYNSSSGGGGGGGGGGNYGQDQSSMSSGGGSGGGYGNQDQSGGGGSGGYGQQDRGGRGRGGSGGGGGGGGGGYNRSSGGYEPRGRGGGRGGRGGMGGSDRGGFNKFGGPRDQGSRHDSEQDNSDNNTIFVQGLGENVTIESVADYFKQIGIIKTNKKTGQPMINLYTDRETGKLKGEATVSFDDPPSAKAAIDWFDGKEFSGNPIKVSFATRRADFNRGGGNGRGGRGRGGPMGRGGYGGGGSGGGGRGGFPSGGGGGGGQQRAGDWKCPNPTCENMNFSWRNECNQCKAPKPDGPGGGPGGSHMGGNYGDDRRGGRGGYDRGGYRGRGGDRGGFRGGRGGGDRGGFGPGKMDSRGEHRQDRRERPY
Description: as §2, §3, §4, §5, §1

[2] = I-in:I-out, average of two days, 10 μM dye

Ratio of FUS-SNAP:PGL-3 [1]: 1.3
Ratio of intensity inside:outside PGL-3 Condensates Day 1 (PGL-3 condensates; I-in:I-out, Day 1, 10 μM dye): 1.0
Ratio of intensity inside:outside PGL-3 Condensates Day 2 (PGL-3 condensates; I-in:I-out, Day 2, 10 μM dye): 1.1
Ratio of intensity inside:outside PGL-3 Condensates Average (PGL-3 condensates; [2]): 1.1
Intensity Inside with Dye Average (PGL-3 condensates; inside PGL-3 condensate, 10 μM dye, 5 μM protein, average of three images, one day of experiments): 1834.5
Intensity Inside with Dye 1 (PGL-3 condensates; inside PGL-3 condensate, 10 μM dye, 5 μM protein, image 1, one day of experiments): 1912.6
Intensity Inside with Dye 2 (PGL-3 condensates; inside PGL-3 condensate, 10 μM dye, 5 μM protein, image 2, one day of experiments): 1794.0
Intensity Inside with Dye 3 (PGL-3 condensates; inside PGL-3 condensate, 10 μM dye, 5 μM protein, image 3, one day of experiments): 1797.0
Intensity Inside Dye-No Dye (PGL-3 condensates; inside PGL-3 condensate, background corrected, one day of experiments): 1237.3
Intensity Outside with Dye Average (PGL-3 condensates; outside PGL-3 condensate, 10 μM dye, 5 μM protein, average of three images, one day of experiments): 1392.9
Intensity Outside with Dye 1 (PGL-3 condensates; outside PGL-3 condensate, 10 μM dye, 5 μM protein, image 1, one day of experiments): 1439.0
Intensity Outside with Dye 2 (PGL-3 condensates; outside PGL-3 condensate, 10 μM dye, 5 μM protein, image 2, one day of experiments): 1386.2
Intensity Outside with Dye 3 (PGL-3 condensates; outside PGL-3 condensate, 10 μM dye, 5 μM protein, image 3, one day of experiments): 1353.5
Intensity Outside (Dye-No Dye) (PGL-3 condensates; outside PGL-3 condensate, background corrected, one day of experiments): 1230.0
Ratio of intensity inside:outside FUS-SNAP Condensates Day 1 (FUS-SNAP condensates; I-in:I-out, Day 1, 10 μM dye): 1.2
Ratio of intensity inside:outside FUS-SNAP Condensates Day 2 (FUS-SNAP condensates; I-in:I-out, Day 2, 10 μM dye): 1.4
Ratio of intensity inside:outside FUS-SNAP Condensates Average (FUS-SNAP condensates; [2]): 1.3
Intensity Inside with Dye Average (FUS-SNAP condensates; inside FUS-SNAP condensate, 10 μM dye, 5 μM protein, average of three images, one day of experiments): 1896.7
Intensity Inside with Dye 1 (FUS-SNAP condensates; inside FUS-SNAP condensate, 10 μM dye, 5 μM protein, image 1, one day of experiments): 2046.8
Intensity Inside with Dye 2 (FUS-SNAP condensates; inside FUS-SNAP condensate, 10 μM dye, 5 μM protein, image 2, one day of experiments): 2005.1
Intensity Inside with Dye 3 (FUS-SNAP condensates; inside FUS-SNAP condensate, 10 μM dye, 5 μM protein, image 3, one day of experiments): 1638.1
Intensity Inside Dye-No Dye (FUS-SNAP condensates; inside FUS-SNAP condensate, background corrected, one day of experiments): 1399.1
Intensity Outside with Dye Average (FUS-SNAP condensates; outside FUS-SNAP condensate, 10 μM dye, 5 μM protein, average of three images, one day of experiments): 1272.5
Intensity Outside with Dye 1 (FUS-SNAP condensates; outside FUS-SNAP condensate, 10 μM dye, 5 μM protein, image 1, one day of experiments): 1319.4
Intensity Outside with Dye 2 (FUS-SNAP condensates; outside FUS-SNAP condensate, 10 μM dye, 5 μM protein, image 2, one day of experiments): 1306.9
Intensity Outside with Dye 3 (FUS-SNAP condensates; outside FUS-SNAP condensate, 10 μM dye, 5 μM protein, image 3, one day of experiments): 1191.0
Intensity Outside (Dye-No Dye) (FUS-SNAP condensates; outside FUS-SNAP condensate, background corrected, one day of experiments): 1132.4
Compound: CC(=O)N[C@H]1[C@H](Oc2ccc3c(c2)Oc2cc(O)ccc2C32OC(=O)c3ccccc32)O[C@H](CO)[C@H](O)[C@@H]1O (stereo partly drawn) [Dye 5, Fluorescein mono-(N-acetyl-β-D-galactosaminide)]
